Assay [1] deals with His-humanTEAD4 217-434 / N-biotinylated YAP 60-100 (Homo sapiens (Human), UniProt Q15561). Briefly: TR-FRET YAP-TEAD4 biochemical assay, alternative format. The class given is binding. The settings on record: alternative format, marked with star *); 5 nM His-humanTEAD4 217-434, 10 nM N-biotinylated YAP 60-100. How it is done: […] Compounds were dissolved at 10 mM in 100% DMSO and serial dilutions were made in 100% DMSO. The diluted compound solutions were incubated in white 384-well plates (Greiner Bio-One) for 1 h at room temperature with the above described mix. The final DMSO concentration present in the assay was 1%. […] The IC50 values were estimated by fitting the data by nonlinear fit regression (GraphPad Prism).

The subject of assay [2] is MKN-45/Ubc-luc cells. Briefly: Reporter gene specificity control (Ubc-luciferase), MKN-45.
For assay [3], the system named is MKN-45/Ubc-luc cells. Briefly: Proliferation assay (resazurin), MKN-45. The note with it: 72 hours incubation. Format: cell-based. (Alamar Blue is a resazurin reagent that responds to reducing activity.)
Assay [4] relates to NCI-H2052 Tet-On shYAP_2371 pLenti6 MCAT_Luc cells. Nature of the assay: Proliferation assay (resazurin), NCI-H2052. The class given is cell-based. The settings on record: 72 hours incubation. In outline: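 The NCI-H2052 line carries a Tet-inducible shRNA against the YAP1 3′UTR and an MCAT luciferase reporter. The day after seeding, it received eleven 2-fold compound dilutions at 0.1% DMSO, and viability was read by resazurin fluorescence.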

Assay [5] relates to NCI-H2052 Tet-On shYAP_2371 pLenti6 MCAT_Luc cells (YAP-dependent transcription). Briefly: YAP reporter gene activity assay (MCAT-luciferase), NCI-H2052. The class given is cell-based. The note with it: 24 hours incubation, BrightGlo luminescence. The procedure, abridged:
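NCI-H2052 cells carrying an MCAT-luciferase reporter and a tetracycline-inducible YAP 3′UTR shRNA were treated with eleven 2-fold compound dilutions (0.1% DMSO) for 24 h at 37 °C. BrightGlo luminescence was background-subtracted and expressed as % of DMSO control. IC50 came from a four-parameter fit; MKN-45/Ubc-luc cells served as the specificity counterscreen.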

Setting [6] is: read-out: Reporter gene assay MKN-45 IC50, MKN-45/Ubc-luc cells (YAP deleted, specificity control), 24 hours incubation.

From US12083101B2, “Biaryl derivatives as YAP/TAZ-TEAD protein-protein interaction inhibitors” (Novartis AG, priority 2020, dated 2024) come the findings set out here.

The structures appear in SMILES notation. Where two headings read alike, the source gives them in different places.

Sequence of His-humanTEAD4 217-434 / N-biotinylated YAP 60-100 (Q15561 217-434): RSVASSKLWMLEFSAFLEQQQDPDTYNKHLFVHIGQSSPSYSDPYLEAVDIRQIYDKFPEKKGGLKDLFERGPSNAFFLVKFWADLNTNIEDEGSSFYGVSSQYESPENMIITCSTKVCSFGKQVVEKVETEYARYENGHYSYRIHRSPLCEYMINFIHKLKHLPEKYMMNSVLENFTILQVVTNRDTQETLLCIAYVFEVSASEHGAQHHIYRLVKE

Regarding `NC(=O)c1cccc(F)c1-c1c(Cl)ccc2c1C[C@@](CN[C@H]1CC[C@H](C(N)=O)CC1)(c1ccccc1)O2` (relative stereo) [Example 138a, 2-((2S,4S)-2-((((Trans)-4-carbamoylcyclohexyl)amino)methyl)-5-chloro-2-phenyl-2,3-dihydrobenzofuran-4-yl)-3-fluorobenzamide], the IC50 was 18 nM in assay [1], over 20 µM in the assay on MKN-45/Ubc-luc cells [2] (setting [6]) and 239 nM in assay [5]. The GI50 was over 13.3 µM with MKN-45/Ubc-luc cells [3] and 366 nM in assay [4].

As to `NC(=O)c1cccc(F)c1-c1c(Cl)ccc2c1C[C@@](CN[C@H]1CC[C@@H](C(N)=O)CC1)(c1ccccc1)O2` (relative stereo) [Example 138b, 2-((2S,4S)-2-((((cis)-4-carbamoylcyclohexyl)amino)methyl)-5-chloro-2-phenyl-2,3-dihydrobenzofuran-4-yl)-3-fluorobenzamide], the IC50 in assay [1] is 18 nM; in the assay with MKN-45/Ubc-luc cells [2] (setting [6]) it was 7.63 µM; in assay [5], 221 nM. Besides, the GI50 is over 10 µM with MKN-45/Ubc-luc cells [3] and 435 nM in assay [4].

Turning to `NC[C@@]1(c2ccccc2)Cc2c(cc(F)c(Cl)c2-c2c(F)cccc2C(N)=O)O1` [Example 32a, 2-((2S,4S)-2-(Aminomethyl)-5-chloro-6-fluoro-2-phenyl-2,3-dihydrobenzofuran-4-yl)-3-fluorobenzamide], the IC50 was 33 nM in assay [1]; over 10 µM in the assay on MKN-45/Ubc-luc cells [2] (Homo sapiens, MKN-45, 24 h, read-out: Reporter gene assay MKN-45 IC50 [μM], MKN-45/Ubc-luc cells (YAP deleted, specificity control), 24 hours incubation); 498 nM in assay [5] (Homo sapiens, NCI-H2052, 24 h). For the same compound, the GI50 with MKN-45/Ubc-luc cells [3] (Homo sapiens) is 6.12 µM; in assay [4] (Homo sapiens, NCI-H2052, 72 h) it was 833 nM.

What is called GI50 is the concentration that inhibits growth by half. High values mean less potent growth inhibition, low ones more potent growth inhibition.
